Test results: patent US6288265A, “Phloroglucidic acid and derivatives as antibacterial agents” (National Science Council, priority 1999, dated 2001)
≈ marks a conversion by molar mass, not a printed value. Entries after “also recorded” stand apart in the source; their conditions may differ. Where two headings read alike, the source gives them in different places.

Assays:
[1] = system: S. aureus FDA 209P; experiment: Minimum inhibitory concentration, agar dilution, S. aureus FDA 209P; type: cell-based, Staphylococcus aureus FDA 209P; conditions: for MIC: Staphylococcus aureus, FDA209P, agar dilution, average of duplicate determinations; for antibacterial activity in words, S. aureus FDA 209P: compared with corresponding phloroglucides
Description: (§1) Determination of Minimum Inhibitory Concentrations. The screening experiments in vitro were carried out for antibacterial activities of the phloroglucide analogs II-VII, XII-XIV, bifunctional cephalosporins VIII and IX, as well as 7-(phloroglucidamido)cephalosporins X and XI. Cephalosporins XV and XVI were used as the reference compounds. The lowest concentrations of antibiotics needed for prevention of visible growth of microorganisms; reported as the average values of duplicate determinations. Minimum inhibitory concentrations (MIC) values obtained by use of an agar dilution method whereby organisms were deposited onto medicated agar plates by the replication device of Steers et al [Steers, F. et al. Antibiot. Chemother. 1959, 9, 307].

[2] = system: S. aureus 95; experiment: Minimum inhibitory concentration, agar dilution, S. aureus 95; type: cell-based, Staphylococcus aureus 95; conditions: for activity against β-lactamase producing microorganisms, in words: i.e., S. aureus 95
Description: as §1

[3] = system: C. albicans; experiment: Minimum inhibitory concentration, agar dilution, C. albicans; type: cell-based; conditions: Candida albicans, read-out: Minimum Inhibitory Concentration (MIC), C. albicans
Description: as §1

[4] = system: Ps. aerureus 1101-75; experiment: Minimum inhibitory concentration, agar dilution, Ps. 1101-75; type: cell-based, Pseudomonas aeruginosa
Description: as §1

[5] = system: PS. aerureus 18S-H; experiment: Minimum inhibitory concentration, agar dilution, Ps. 18S-H; type: cell-based, Pseudomonas aeruginosa 18S-H; conditions: Pseudomonas aeruginosa, 18SH, read-out: Minimum Inhibitory Concentration (MIC), PS. aerureus 18S-H
Description: as §1

[6] = system: pathogenic microorganisms; experiment: Antibacterial activity in vitro (statements in words); type: cell-based
Description: as §1

[7] = molecular target: T1, β-lactamase of S. aureus 95 (Staphylococcus aureus, UniProt P00807); experiment: Minimum protective concentration against β-lactamase of S. aureus 95; type: biochemical; conditions: protection of chromogenic cephem indicator from hydrolysis within 40 min, average of duplicates
T1 construct: chromogenic cephalosporin (nitrocefin type) hydrolysis
T1 sequence (P00807 25-281): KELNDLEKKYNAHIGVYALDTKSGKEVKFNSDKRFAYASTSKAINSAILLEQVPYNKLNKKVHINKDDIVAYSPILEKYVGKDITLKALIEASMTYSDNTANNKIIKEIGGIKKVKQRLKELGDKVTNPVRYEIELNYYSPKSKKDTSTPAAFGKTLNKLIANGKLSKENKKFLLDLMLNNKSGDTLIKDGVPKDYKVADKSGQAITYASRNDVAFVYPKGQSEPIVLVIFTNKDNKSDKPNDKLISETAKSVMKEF
From the text: (§2) Determination of Minimum Protective Concentrations. The β-lactamase inhibitory properties of cephalosporin-phloroglucide esters VIII and IX as well as 7-(phloroglucidamido)cephalosporins X and XI were studied. Cephalosporins XV and XVI as well as clavulanic acid (XVII) were used in vitro as the reference compound. The average values of duplicate determinations and the ability of compounds to inhibit the hydrolysis of 3-[E-(2,4-dinitro)styryl]-(6R,7R)-7-(2-thienylacetamido)-3-cephem-4-carboxylic acid by β-lactamases from S. aureus 95 and Ps. aeruginosa 18S-H. Minimum protective concentrations (MPC) values were determined by the procedure of O'Callaghan ct al. [O'Callaghan C. H. ct al. Antimicrob. Agents Chemother. 1972, 1, 283] and are the lowest concentrations of β-lactams needed to protect the indicator from hydrolysis by β-lactamases under standard test conditions within 40 min. The hydrolysis of indicator was evidenced by the appearance of a distinct red color.

[8] = system: β-lactamase of PS. aeruginosa 18S-H; experiment: Minimum protective concentration against β-lactamase of Ps. aeruginosa 18S-H; type: biochemical; conditions: protection of chromogenic cephem indicator from hydrolysis within 40 min, average of duplicates
From the text: as §2

[9] = system: β-lactamases of S. aureus 95 and Ps. aeruginosa 18S-H; experiment: Behaviour towards β-lactamases (statements in words); type: biochemical
From the text: as §2

[10] = Stability in the absence of β-lactamases in phosphate buffer solution; type: physicochemical; conditions: 37° C., pH 6.5
[11] = Staphylococcus aureus, 95, agar dilution, average of duplicates, β-lactamase-producing, methicillin resistant organism, read-out: Minimum Inhibitory Concentration (MIC), S. aureus 95
[12] = agar dilution, average of duplicate determinations
[13] = Pseudomonas aeruginosa, 110175, agar dilution, average of duplicate determinations, read-out: Minimum Inhibitory Concentration (MIC), Ps. aerureus 1101-75

SMILES | MIC [1] [µg/mL] | MIC [2, 11] [µg/mL] | MIC [3, 12] [µg/mL] | MIC [4, 13] [µg/mL] | MIC [5] [µg/mL] | antibacterial activity in words [6] | antibacterial activity in words, S. aureus FDA 209P [1] | Minimum Protective Concentration (MPC), β-lactamase of S. aureus 95 [7] [µg/mL] | Minimum Protective Concentration (MPC), β-lactamase of PS. aeruginosa 18S-H [8] [µg/mL] | hydrolysis by / stability towards β-lactamases, in words [9] | β-lactamase inhibitory property, in words [9] | MIC ([2]; Staphylococcus aureus, 95, read-out: Minimum Inhibitory Concentration (MIC), S. aureus 95) [µg/mL] | activity against β-lactamase producing microorganisms, in words [2] | MIC [3] [µg/mL] | MIC ([4]; Pseudomonas aeruginosa, 110175, read-out: Minimum Inhibitory Concentration (MIC), Ps. aerureus 1101-75) [µg/mL] | β-lactam ring destructed (time) [10] [h]
O=C(O)c1cccc(Cc2cc(Cl)cc(Cc3ccccc3O)c2O)c1O [II, 2-(3-Carboxy-2-hydroxybenzyl)-6-(2-hydroxybenzyl)-4-chlorophenol] | 0.86 (≈ 2.23 µM) | 0.43 (≈ 1.12 µM) | 1.43 (≈ 3.72 µM) | 0.02 (≈ 0.052 µM) | 0.1 (≈ 0.26 µM) | more potent antimicrobial activity than that of the model phloroglucide (XXI) |  |  |  |  |  |  |  |  |  | 
O=C(O)c1cccc(C(=O)c2cc(Cl)cc(C(=O)c3ccccc3O)c2O)c1O [III, 2-(3-Carboxy-2-hydroxybenzoyl)-6-(2-hydroxybenzoyl)-4-chlorophenol] | 3.67 (≈ 8.89 µM) | 0.98 (≈ 2.37 µM) | 3.7 (≈ 8.96 µM) | 0.17 (≈ 0.412 µM) | 0.26 (≈ 0.63 µM) | its antimicrobial property decreased; also recorded: In comparison with dicarboxylic acid derivative (XV), mono-carboxylic acid (III) however exhibited greater potency; also recorded: lower efficacy than phenolic acid (II) and phenol (XII) against pathogenic microorganisms |  |  |  |  |  |  |  |  |  | 
COC(=O)c1cccc(Cc2cc(Cl)cc(Cc3ccccc3O)c2O)c1O [IV] | 2.98 (≈ 7.47 µM) | 4.65 (≈ 11.7 µM) | 117 (≈ 294 µM) | 1.25 (≈ 3.13 µM) | 1.56 (≈ 3.91 µM) | lower efficacy than phloroglucides (II) and (III) as well as the bifunctional cephalosporins (VIII) and (IX) |  |  |  |  |  |  |  |  |  | 
O=C(COc1ccccc1)N[C@@H]1C(=O)N2C(C(=O)O)=C(COC(=O)c3cccc(C(=O)c4cc(Cl)cc(C(=O)c5ccccc5O)c4O)c3O)CS[C@H]12 [IX, 3-{3-[5-Chloro-2-hydroxy-3-(2-hydroxybenzoyl)benzoyl]-2-hydroxy-benzoyloxymethyl}-7-phenoxyacetamido-3-cephem-4-carboxylic Acid] | 0.9 (≈ 1.19 µM) | 2.1 (≈ 2.77 µM) | 6.47 (≈ 8.52 µM) | 1.37 (≈ 1.8 µM) | 3.13 (≈ 4.12 µM) |  | greater antibacterial activity than the corresponding phloroglucides (II) and (III) against S. aureus FDA 209P | 4.81 | 5.98 | underwent hydrolysis to liberate their phloroglucidc components |  |  |  |  |  | 
O=C(COc1ccccc1)N[C@@H]1C(=O)N2C(C(=O)O)=C(COC(=O)c3cccc(Cc4cc(Cl)cc(Cc5ccccc5O)c4O)c3O)CS[C@H]12 [VIII, 3-{3-[5-Chloro-2-hydroxy-3-(2-hydroxybenzyl)benzyl]-2-hydroxy-benzoyloxymethyl}-7-phenoxyacetamido-3-cephem-4-carboxylic Acid] | 0.41 (≈ 0.561 µM) | 1.2 (≈ 1.64 µM) | 5.86 (≈ 8.01 µM) | 0.98 (≈ 1.34 µM) | 1.24 (≈ 1.7 µM) | broadened spectrum of antibacterial activity in vitro; also recorded: less activity against other pathogenic microorganisms; also recorded: phloroglucide-like antibacterial activity | greater antibacterial activity than the corresponding phloroglucides (II) and (III) against S. aureus FDA 209P | 7.08 | 6.74 | underwent hydrolysis to liberate their phloroglucidc components |  |  |  |  |  | 
CNC(=O)c1cccc(C(=O)c2cc(Cl)cc(C(=O)c3ccccc3O)c2O)c1O [VII] | 18.1 (≈ 42.6 µM) | 17.8 (≈ 41.7 µM) | 120 (≈ 281 µM) | 6.03 (≈ 14.2 µM) | 8.32 (≈ 19.5 µM) | lower efficacy than phloroglucides (II) and (III) as well as the bifunctional cephalosporins (VIII) and (IX) |  |  |  |  |  |  |  |  |  | 
CNC(=O)c1cccc(Cc2cc(Cl)cc(Cc3ccccc3O)c2O)c1O [VI] | 7.35 (≈ 18.5 µM) | 6.63 (≈ 16.7 µM) | 114 (≈ 287 µM) | 3.28 (≈ 8.24 µM) | 4.7 (≈ 11.8 µM) | lower efficacy than phloroglucides (II) and (III) as well as the bifunctional cephalosporins (VIII) and (IX) |  |  |  |  |  |  |  |  |  | 
COC(=O)c1cccc(C(=O)c2cc(Cl)cc(C(=O)c3ccccc3O)c2O)c1O [V] | 14.7 (≈ 34.4 µM) | 15.3 (≈ 35.9 µM) | 125 (≈ 294 µM) | 5.78 (≈ 13.5 µM) | 4.3 (≈ 10.1 µM) | lower efficacy than phloroglucides (II) and (III) as well as the bifunctional cephalosporins (VIII) and (IX) |  |  |  |  |  |  |  |  |  | 
CC(=O)OCC1=C(C(=O)O)N2C(=O)[C@@H](NC(=O)c3cccc(Cc4cc(Cl)cc(Cc5ccccc5O)c4O)c3O)[C@H]2SC1 [X, 7-{3-[5-Chloro-2-hydroxy-3-(2-hydroxybenzyl)benzyl]-2-hydroxy-benzamido}cephalosporanic Acid] | 0.35 (≈ 0.548 µM) | 0.28 (≈ 0.438 µM) | 28.3 (≈ 44.3 µM) | 0.28 (≈ 0.438 µM) | 0.45 (≈ 0.704 µM) | notable antibacterial activity; also recorded: potent phloroglucide-like antibacterial activity |  | 95.20 | 99.78 | stability towards β-lactamases | did not exhibit notable β-lactamase inhibitory property |  |  |  |  | 
CC(=O)OCC1=C(C(=O)O)N2C(=O)[C@@H](NC(=O)c3cccc(C(=O)c4cc(Cl)cc(C(=O)c5ccccc5O)c4O)c3O)[C@H]2SC1 [XI, 7-{3-[5-Chloro-2-hydroxy-3-(2-hydroxybenzoyl)benzoyl]-2-hydroxy-benzamido}cephalosporanic Acid] | 0.78 (≈ 1.17 µM) | 0.45 (≈ 0.675 µM) | 14.2 (≈ 21.3 µM) | 0.79 (≈ 1.18 µM) | 0.38 (≈ 0.57 µM) | notable antibacterial activity |  | 88.68 | 93.45 | stability towards β-lactamases | did not exhibit notable β-lactamase inhibitory property |  |  |  |  | 
Oc1ccccc1Cc1cc(Cl)cc(Cc2ccccc2O)c1O [XII, reference compound] | 1.2 (≈ 3.52 µM) | 0.58 (≈ 1.7 µM) | 2.06 (≈ 6.04 µM) | 0.07 (≈ 0.205 µM) | 0.18 (≈ 0.528 µM) |  |  |  |  |  |  |  |  |  |  | 
O=C(O)c1cccc(Cc2cc(Cl)cc(Cc3cccc(C(=O)O)c3O)c2O)c1O [XIII, reference compound] | 3.25 (≈ 7.58 µM) | 4.15 (≈ 9.68 µM) | 16.5 (≈ 38.5 µM) | 0.86 (≈ 2.01 µM) | 1.32 (≈ 3.08 µM) |  |  |  |  |  |  |  |  |  |  | 
O=C(O)c1cccc(C(=O)c2cc(Cl)cc(C(=O)c3cccc(C(=O)O)c3O)c2O)c1O [XIV, reference compound] | 18.2 (≈ 40 µM) | 22.2 (≈ 48.6 µM) | 19.1 (≈ 41.9 µM) | 2.54 (≈ 5.56 µM) | 3.06 (≈ 6.7 µM) |  |  |  |  |  |  |  |  |  |  | 
CC(=O)OCC1=C(C(=O)O)N2C(=O)[C@@H](NC(=O)COc3ccccc3)[C@H]2SC1 [XV, reference compound] | 0.7 (≈ 1.72 µM) |  |  |  | > 145 |  |  | 1.35 | 0.97 | susceptible to hydrolysis by β-lactamases |  | > 145 | did not show significant activity | > 145 | > 145 | 
CO/N=C(\C(=O)N[C@@H]1C(=O)N2C(C(=O)O)=C(COC(C)=O)CS[C@H]12)c1csc(N)n1 [XVI, reference compound] | 1.7 (≈ 3.73 µM) | 40.6 (≈ 89.1 µM) | > 145 | 69.9 (≈ 153 µM) | 135 (≈ 296 µM) |  |  | 2.72 | 1.03 | susceptible to hydrolysis by β-lactamases |  |  | did not show significant activity |  |  | 
O=C(O)[C@H]1/C(=C/CO)O[C@@H]2CC(=O)N21 [XVII, clavulanic acid, reference compound] |  |  |  |  |  |  |  | 0.38 | 3.00 |  |  |  |  |  |  | ≤ 13
